Values quoted from earlier work as cited in US20250360113A1, “ADMINISTRATION OF DHB TO INCREASE BENEFIT OF LOSING WEIGHT OF INTERMITTENT FASTING” (NANJING NUTRABUILDING BIO-TECH CO., LTD., priority 2023, published 2025).

How the values were obtained:
brown adipocyte = conditions: by increasing transcription of PRDM16 via AMPK activation and PGC-1α recruitment; cited from earlier work
[1] = obese db/db mice; cited from earlier work

In the case of `COc1ccc2cc3[n+](cc2c1OC)CCc1cc2c(cc1-3)OCO2` [BBR, berberine], the “brown adipocyte differentiation and brown adipose tissues (BAT) thermogenesis” value (brown adipocyte) is listed as “promote”, the “energy expenditure and adaptive thermogenesis” value [1] is listed as “increase” and the “thermogenic program in BAT” value [1] is listed as “promote”. The weight gain [1] was “reduce”.
